Data: ChEMBL document CHEMBL1123032, “Antiparasitic agents. 6. Synthesis and anthelmintic activities of novel isothiocyanatophenyl-1,2,4-oxadiazoles” (1985)

What was measured:
Format in all cases: functional
[1] = Anthelmintic activity against Nematospiroides dubius when the dose was administered orally in mouse.; design: concentration or dose not given beside the values
Rodentolepis nana = test: Evaluation for antihelminthic activity against Hymenolepis nana when the dose was administered orally in mouse.
Mus musculus [2] = organism: Mus musculus; test: Compound was evaluated for antihelminthic activity in the diet against Nematospiroides dubius in mice at a concentration 0.013%
Mus musculus [3] = organism: Mus musculus; test: Compound was evaluated for antihelminthic activity in the diet against Nematospiroides dubius in mice at a concentration 0.1%
Mus musculus [4] = organism: Mus musculus; test: Compound was evaluated for antihelminthic activity in the diet against Nematospiroides dubius in mice at concentration 0.2%
Mus musculus [5] = organism: Mus musculus; test: Compound was evaluated for antihelminthic activity in the diet against Nematospiroides dubius in mice at a concentration 0.05%
Mus musculus [6] = organism: Mus musculus; test: Compound was evaluated for antihelminthic activity in the diet against Nematospiroides dubius in mice at a concentration 0.025%
Mus musculus [7] = test: Compound was evaluated for antihelminthic activity against Hymenolepis nana when the dose was administered orally in mouse after destrobilization
Mus musculus [8] = test: Compound was evaluated for antihelminthic activity against Hymenolepis nana when the dose was administered subcutaneously in mouse

| SMILES | Activity [1] | Activity (Rodentolepis nana) | further results |
| --- | --- | --- | --- |
| [O-][n+]1ccc(-c2ncon2)cc1 | 0% | 0% | – |
| Nc1ccc(-c2ncon2)cc1 | 0% | 0% | – |
| S=C=Nc1ccc(-c2noc(C3CCCCC3)n2)cc1 | 0% | 25% | – |
| Fc1ccc(-c2noc(-c3ccc(N=C=S)cc3)n2)cc1 | 0% | 0% | – |
| COCCc1nc(-c2ccc(N=C=S)cc2)no1 | 0% | 0% | – |
| S=C=Nc1cc(-c2nc(-c3ccco3)no2)ccc1Cl | 0% | 100% | – |
| COC(=O)Nc1cc(-c2nc(-c3ccco3)no2)ccc1Cl | 0% | 0% | – |
| O=[N+]([O-])CCc1nc(-c2ccccc2)no1 | 0% | 0% | – |
| Nc1ccc(-c2nc(-c3ccco3)no2)c(Cl)c1 | 0% | 0% | – |
| CCCCCCCCCCCc1nc(N)no1 | – | – | Activity (Mus musculus [2]): 8%; Activity (Mus musculus [3]): 70%; Activity (Mus musculus [4]): 93%; Activity (Mus musculus [5]): 46%; Activity (Mus musculus [6]): 35% |
| Nc1ccc(-c2nc(-c3ccc(Cl)cc3)no2)cc1 | 0% | 0% | – |
| c1ccc(-c2nc(CCn3cnc4ccccc43)no2)cc1 | 0% | 0% | – |
| S=C=Nc1ccc(-c2noc(-c3ccccn3)n2)cc1 | 0% | 0% | – |
| S=C=Nc1ccc(-c2noc(C34CC5CC(CC(C5)C3)C4)n2)cc1 | 0% | 0% | – |
| c1ccc(-c2nc(CCn3c(-c4cscn4)nc4ccccc43)no2)cc1 | 17% | 0% | – |
| S=C=Nc1ccc(-c2noc(C3CC3)n2)cc1 | 0% | 0% | – |
| S=C=Nc1ccc(-c2nc(-c3cccs3)no2)cc1 | 22% | 33% | – |
| O=[N+]([O-])c1ccc2ncn(CCc3noc(-c4ccccc4)n3)c2c1 | 0% | 0% | – |
| O=C(Nc1ccc(-c2ncon2)cc1)Oc1ccccc1 | 0% | 0% | – |
| COc1cc(-c2nc(-c3ccc(N=C=S)cc3)no2)cc(OC)c1OC | 0% | 0% | – |

| SMILES | Activity [1] | Activity (Rodentolepis nana) | further results |
| --- | --- | --- | --- |
| S=C=Nc1ccc(-c2noc(CCl)n2)cc1 | 38% | 0% | – |
| S=C=Nc1ccc(-c2nc(-c3ccccn3)no2)cc1 | 0% | 0% | – |
| Nc1cc(-c2nc(-c3ccco3)no2)ccc1Cl | 0% | 0% | – |
| C(=N/c1ccc(-c2ncon2)cc1)/c1ccc[nH]1 | 0% | 0% | – |
| S=C=Nc1ccc(-c2noc(-c3cccs3)n2)cc1 | 57% | 25% | – |
| Nc1ccc(-c2nc(-c3ccc(F)cc3)no2)cc1 | 18% | 0% | – |
| Clc1ccc(/C=N/c2ccc(-c3ncon3)cc2)cc1 | 0% | 0% | – |
| S=C=Nc1cccc(-c2ncon2)c1 | 0% | 0% | – |
| S=C=Nc1cc(-c2ncon2)ccc1Cl | 0% | 0% | – |
| O=C(Nc1cc(-c2nc(-c3ccco3)no2)ccc1Cl)Oc1ccccc1 | 0% | 0% | – |
| CCc1nc(-c2ccc(N=C=S)cc2)no1 | 30% | 0% | – |
| CCOC(=O)Cc1nc(-c2ccc(N=C=S)cc2)no1 | 0% | 0% | – |
| CC(=O)Oc1ccccc1-c1nc(-c2ccc(N=C=S)cc2)no1 | 0% | 0% | – |
| Fc1ccc(-c2nc(-c3ccc(N=C=S)cc3)no2)cc1 | 42% | 0% | – |
| O=C(Nc1ccc(-c2nc(-c3ccco3)no2)c(Cl)c1)OCC(Cl)(Cl)Cl | 0% | 0% | – |
| Clc1ccc(-c2ncon2)cc1 | – | – | Activity (Mus musculus [2]): 36%; Activity (Mus musculus [3]): 100%; Activity (Mus musculus [5]): 95%; Activity (Mus musculus [6]): 61% |
| S=C=Nc1ccc(-c2ncon2)cc1 | 100% | – | Activity (Mus musculus [2]): 48%; Activity (Mus musculus [3]): 100%; Activity (Mus musculus [7]): 0%; Activity (Mus musculus [4]): 100%; Activity (Mus musculus [5]): 96%; Activity (Mus musculus [6]): 82%; Activity (Mus musculus [8]): 100% |
| CCN(CC)/C(S)=N\c1cc(-c2nc(-c3ccco3)no2)ccc1Cl | 0% | 0% | – |
| CCN(CC)/C(S)=N\c1ccc(-c2nc(-c3ccco3)no2)c(Cl)c1 | 0% | 0% | – |
| S=C=Nc1cccc(-c2noc(-c3ccco3)n2)c1 | 0% | 50% | – |

| SMILES | Activity [1] | Activity (Rodentolepis nana) | further results |
| --- | --- | --- | --- |
| S=C=Nc1ccc(-c2noc(-c3ccc(Cl)cc3)n2)cc1 | 0% | 0% | – |
| CN1CCN(Cc2nc(-c3ccc(N=C=S)cc3)no2)CC1 | 0% | 0% | – |
| S=C=Nc1ccc(-c2nc(-c3ccco3)no2)c(Cl)c1 | 0% | 100% | – |
| S=C=Nc1ccc(-c2nc(-c3ccco3)no2)cc1 | 90% | 100% | – |
| S=C=Nc1cc(-c2nc(-c3ccco3)no2)ccc1Sc1ccccc1 | 0% | 0% | – |
| C(=C\c1cccs1)/c1noc(/C=C/c2cccs2)n1 | 0% | 0% | – |
| O=C(Nc1cc(-c2nc(-c3ccco3)no2)ccc1Cl)OCC(Cl)(Cl)Cl | 0% | 0% | – |
| S=C=Nc1ccc(-c2noc(CCc3ccccc3)n2)cc1 | 0% | 0% | – |
| CCOC(=O)c1nc(-c2ccc(N=C=S)cc2)no1 | 0% | 0% | – |
| O=C(Nc1ccc(-c2nc(-c3ccco3)no2)c(Cl)c1)Oc1ccccc1 | 0% | 0% | – |
| O=[N+]([O-])c1ccc(/C=N\c2ccc(-c3ncon3)cc2)o1 | 0% | 0% | – |
| CSc1nc(-c2ccccc2)no1 | – | – | Activity (Mus musculus [2]): 39%; Activity (Mus musculus [3]): 94%; Activity (Mus musculus [4]): 98%; Activity (Mus musculus [5]): 96%; Activity (Mus musculus [6]): 67% |
| S=C=Nc1ccc(-c2nc(-c3ccc(Cl)cc3)no2)cc1 | 0% | 0% | – |
| c1cc(-c2ncon2)ccn1 | 0% | 0% | – |
| COC(=O)Nc1ccc(-c2nc(-c3ccco3)no2)c(Cl)c1 | 0% | 0% | – |
| O=[N+]([O-])c1cc(/C=N/c2ccc(-c3ncon3)cc2)ccc1Cl | 0% | 0% | – |
| S=C=Nc1ccc(-c2noc(-c3ccco3)n2)cc1 | 72% | 0% | – |
| c1ccc2[nH]c(-c3cscn3)nc2c1 [THIABENDAZOLE] | – | – | Activity (Mus musculus [2]): 47%; Activity (Mus musculus [3]): 100%; Activity (Mus musculus [4]): 100%; Activity (Mus musculus [5]): 94%; Activity (Mus musculus [6]): 81% |
